Assay results published in patent US9619875B2, “Contrast reagent leakage correction in dynamic susceptibility contrast magnetic resonance imaging” (OREGON HEALTH & SCIENCE UNIVERSITY, priority 2014, dated 2017).

Assay: DSC MRI with gadoteridol (day 1) and ferumoxytol (day 2) in subjects with Glioblastoma multiforme
Format: in vivo
Description: In this example, 17 subjects with Glioblastoma multiforme (GBM) were prospectively studied on institutional review board approved protocols. Informed written consent was obtained from each subject. Subjects underwent MRI sessions consisting of two consecutive days of MRI scans. On the first day, pre- and post-contrast T1-weighted images and DSC-MRI were acquired using gadoteridol gadolinium (III) chelate (ProHance, Bracco Diagnostic Inc., Princeton, N.J.). On the following day, the same MRI sequences were acquired using ferumoxytol (provided by AMAG Pharmaceuticals, Inc., Cambridge, Mass.). […]
All Gd and Fe DSC data were first motion corrected within each dynamic series and then between the series using FMRIB's Linear Image Registration Tool (FLIRT) within FM RIB Software Library (FSL). […] The Gd CR extravasating rate constant was calculated either with the Equation 1 fitting approach to obtain K2, or the KL constant defined as the slope of the linear portion of the graphed points using Equation 2. In this example, linear regression was performed starting at 40 seconds post CR injection to ensure minimal influence of CR transient period (period (i) shown in FIGS. 2E and 2F described below) on KL quantification. […]

## CC(O)CN1CCN(CC(=O)[O-])CCN(CC(=O)[O-])CCN(CC(=O)[O-])CC1.[Gd+3] (centres unmarked) [gadoteridol, gadoteridol gadolinium (III) chelate]
17 GBM subjects, gadoteridol 0.1 mmol/kg i.v., ferumoxytol 1 mg/kg, 2 mg/kg or 75 mg i.v.
  complications during the MR examinations: No subject had any complications
Equation 2 linearization, data up to 70 s post CR injection
  pixels with appreciable linearity departure (period iii, intravasation): < 0.1%
